Experimental data published in PMC5829162, “Rational Design, Synthesis and Biological Evaluation of Pyrimidine-4,6-diamine derivatives as Type-II inhibitors of FLT3 Selective Against c-KIT” (Scientific Reports, 2018).
Read-outs that look alike come from different tables or passages of the source.

What was measured:
Molm14^F691L = assay: Cell proliferation (CellTiter-Glo, 48 h), Molm14 F691L; format: cell-based; conditions: Homo sapiens, MOLM-14; Molm14^F691L, 48 hours
Excerpt: (§1) Stable BaF3 populations expressing activated FLT3 were generated by retroviral spinfection with the appropriate mutated plasmid followed by selection and growth factor withdrawal as previously described. The BaF3 cell line was originally obtained from the laboratory of Charles Sawyers and has not been authenticated. MV411 and Molm14 cells were obtained from the laboratory of Scott Kogan and authenticated by Promega STR analysis in June 2013. All cell lines were mycoplasma-free. Cells were incubated with compounds for 48 hours and proliferation was assessed using CellTiter-Glo (Promega; Madison, WI) according to the manufacturer’s recommendation on a SpectraMax M3 microplate reader using SpectraMax Software (Molecular Devices; Sunnyvale, CA). All cell viability data shown is reflective of experiments performed a minimum of three times. […]
(§2) S13. Cell Cultures: Stable BaF3 populations expressing activated FLT3 were generated by retroviral spinfection with the appropriate mutated plasmid followed by selection and growth factor withdrawal as previously described .4 The BaF3 cell line was originally obtained from the laboratory of Charles Sawyers and has not been authenticated. MV411 and Molm14 cells were obtained from the laboratory of Scott Kogan and authenticated by Promega STR analysis in June
(§3) 2013. All cell lines were mycoplasma -free. Cells were incubated with compounds for 48 hours and proliferation was assessed using CellTiter -Glo (Promega; Madison, WI) according to the manufacturer’s recommendation on a SpectraMax M3 microplate reader using SpectraMax Software (Molecular Devices; Sunnyvale, CA). All cell viability data shown is reflective of experiments performed a minimum of three times.

MV4–11 AML cells = assay: Cell proliferation (CellTiter-Glo, 48 h), MV4-11; format: cell-based; conditions: Homo sapiens; MV4–11, 48 hours
Excerpt: as §1, §2, §3

Molm14 par = assay: Cell proliferation (CellTiter-Glo, 48 h), Molm14 par; format: cell-based; conditions: Homo sapiens, MOLM-14
Excerpt: as §1, §2, §3

Ba/F3 FLT3-ITD = assay: Cell proliferation (CellTiter-Glo, 48 h), Ba/F3 FLT3-ITD; format: cell-based
Excerpt: as §1, §2, §3

FLT3 kinase = target: T1, FLT3 kinase (Homo sapiens, UniProt P36888); assay: Biochemical enzyme inhibition assay (microfluidics, Caliper EZ Reader II), FLT3; conditions: for IC50: in vitro kinase assay, 60 min pre-incubation, ATP 190 µM, three independent experiments; for LE: ligand efficiency for FLT3 inhibition
T1 construct: purchased Invitrogen
T1 sequence (P36888 27-993): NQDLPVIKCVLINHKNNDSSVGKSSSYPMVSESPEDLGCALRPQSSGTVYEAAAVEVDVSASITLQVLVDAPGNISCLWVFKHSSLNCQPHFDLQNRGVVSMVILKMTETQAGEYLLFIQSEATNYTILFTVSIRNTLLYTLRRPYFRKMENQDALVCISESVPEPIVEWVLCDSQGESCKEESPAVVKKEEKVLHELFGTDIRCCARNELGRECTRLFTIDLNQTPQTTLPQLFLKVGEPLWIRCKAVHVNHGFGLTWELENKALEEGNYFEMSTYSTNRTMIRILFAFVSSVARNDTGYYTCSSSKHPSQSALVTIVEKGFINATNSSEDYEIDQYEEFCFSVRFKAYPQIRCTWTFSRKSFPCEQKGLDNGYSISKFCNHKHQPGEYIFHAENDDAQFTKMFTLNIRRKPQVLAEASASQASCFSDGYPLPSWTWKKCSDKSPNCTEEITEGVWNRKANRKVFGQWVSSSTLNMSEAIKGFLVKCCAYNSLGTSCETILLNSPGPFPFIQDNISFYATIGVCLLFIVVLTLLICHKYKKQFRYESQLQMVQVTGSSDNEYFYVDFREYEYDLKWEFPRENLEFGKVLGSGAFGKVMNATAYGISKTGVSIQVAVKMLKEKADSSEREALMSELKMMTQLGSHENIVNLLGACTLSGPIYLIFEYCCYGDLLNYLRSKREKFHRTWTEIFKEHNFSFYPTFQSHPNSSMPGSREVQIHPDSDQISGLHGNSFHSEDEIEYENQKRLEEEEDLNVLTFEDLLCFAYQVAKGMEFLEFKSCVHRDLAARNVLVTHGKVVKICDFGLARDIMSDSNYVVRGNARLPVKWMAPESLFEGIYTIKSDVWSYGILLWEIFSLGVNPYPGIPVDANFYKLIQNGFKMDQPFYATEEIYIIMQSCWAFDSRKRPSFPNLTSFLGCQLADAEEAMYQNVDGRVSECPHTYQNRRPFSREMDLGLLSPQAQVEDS
Method: Kinase activity was measured in a microfluidics assay that monitors the separation of a phosphorylated product from substrate[31],[32]. […] After, 1 μL was transferred into a 384-well polypropylene assay plate (Greiner, Frickenhausen, Germany). The FLT3 enzyme (Invitrogen™, Grand Island, USA) was diluted in kinase buffer to a concentration of 2 nM and 5 µL of the enzyme mixture was transferred to the assay plate. The inhibitors/FLT3 enzyme were incubated for 60 minutes with minor shaking. […] For positive control, no inhibitor was added. For negative control, no enzyme was added. For running control, quizartinib was utilized. The plate was run until 10–20% conversion based on the positive control wells. The following separation conditions were utilized: upstream voltage −500V; downstream voltage, −1900V; chip pressure −0.8. Percent inhibition was measured for each well comparing starting peptide to phosphorylated product peaks relative to the baseline. Dose response curves, spanning the IC50 dose, were generated in GraphPad Prisim 6 and fit to an exponential one-phase decay line and IC50 values were obtained from the half-life value of the curve. IC50 values were generated in duplicate and error was calculated from the standard deviation between values.
S10. Biochemical Inhibition Assay:1,2 Kinase activity was measured in a microfluidics assay that monitors the separation of a phosphorylated product from substrate. The assay was run using a 12-sipper chip on a Caliper EZ Reader II (PerkinElmer®, Walthman, USA) with separation […]
Walthman, USA]). In 96-well polypropylene plates (Greiner, Frickenhausen, Germany) […]
After, 1 μL was transferred into a 384-well polypropylene assay plate (Greiner, Frickenhausen, Germany). The FLT3 enzyme (Invitrogen™, Grand Island, USA) was diluted in kinase buffer to a concentration of 2 nM and 5 µL of the enzyme mixture was transferred to the assay plate. The inhibitors/FLT3 enzyme were incubated for 60 minutes with minor shaking. A substrate mix was prepared containing ATP (Ambresco®, Solon, USA) and […]
USA) dissolved in kinase buffer, and 5 µL of the substrate mix was added to the assay plate.
For positive control, no inhibitor was added. For negative control, no enzyme was added. For running control, quizartinib was utilized. The plate was run until 10-20% conversion based on the positive control wells. The following separation conditions were utilized: upstream voltage -500V; downstream voltage, -1900V; chip pressure - 0.8. Percent inhibition was measured for each well comparing starting peptide to phosphorylated product peaks relative to the baseline. Dose response curves, spanning the IC50 dose, were generated in GraphPad Prisim 6 and fit to an exponential one-phase decay line and IC50 values were obtained from the half-life value of the curve. IC50 values were generated in duplicate and error was calculated from the standard deviation between values. […]

Molm14^D835Y = assay: Cell proliferation (CellTiter-Glo, 48 h), Molm14 D835Y; format: cell-based; conditions: Homo sapiens, MOLM-14; Molm14^D835Y, 48 hours
Excerpt: as §1, §2, §3

| SMILES | GI50 (Molm14^F691L) [µM] | GI50 (MV4–11 AML cells) [µM] | GI50 (Molm14 par) [µM] | GI50 (Ba/F3 FLT3-ITD) [µM] | melting point [°C] | IC50 (FLT3 kinase; read-out: FLT3 IC50 (nM) ± SD) [nM] | LE (FLT3 kinase) | GI50 (Molm14^D835Y) [µM] | fold less active than 13a on FLT3 (FLT3 kinase; enzymatic FLT3 IC50 compared with 13a) | IC50 (FLT3 kinase; FLT3 IC50 (nM) ± SD) [nM] |
| --- | --- | --- | --- | --- | --- | --- | --- | --- | --- | --- |
| CC(C)(C)c1cc(NC(=O)Cc2ccc(Nc3cc(Nc4cccc(C(F)(F)F)c4)ncn3)cc2)no1 [13m, 2-(4-(6-(3-(Trifluoromethyl)phenylamino)pyrimidin-4-ylamino)phenyl)-N-(5-tert-butylisoxazol-3-yl)acetamide] | – | – | – | – | 254 to 256 | 1180 ± 527 | 0.22 | – | – | – |
| CC(C)(C)c1cc(NC(=O)Cc2ccc(Nc3cc(NCCCN4CCCC4)ncn3)cc2)no1 [13n, 2-(4-(6-(3-(Pyrrolidin-1-yl)propylamino)pyrimidin-4-ylamino)phenyl)-N-(5-tert-butylisoxazol-3-yl)acetamide] | – | – | – | – | 154 to 156 | 1030 ± 121 | 0.23 | – | – | – |
| CC(C)(C)c1cc(NC(=O)Cc2ccc(Nc3cc(Oc4ccc(Br)cc4)ncn3)cc2)no1 [13o, 2-(4-(6-(4-Bromophenoxy)pyrimidin-4-ylamino)phenyl)-N-(5-tert-butylisoxazol-3-yl)acetamide] | – | – | – | – | 188 to 190 | – | 0.19 | – | – | 14800 ± 248 |
| CN(C)c1cc(Oc2ccc(CC(=O)Nc3cc(C(C)(C)C)on3)cc2)ncn1 [13q, 2-(4-(6-(Dimethylamino)pyrimidin-4-yloxy)phenyl)-N-(5-tert-butylisoxazol-3-yl)acetamide] | – | – | – | – | 170 to 172 | 8760 ± 127 | 0.24 | – | – | – |
| CNc1cc(Nc2ccc(CC(=O)Nc3cccc(C(F)(F)F)c3)cc2)ncn1 [13r, 2-(4-(6-(Methylamino)pyrimidin-4-ylamino)phenyl)-N-(3-(trifluoromethyl)phenyl) acetamide] | 1.35 | 0.0806 | 0.187 | 0.266 | 216 to 218 | 411 ± 236 | 0.30 | 2.23 | – | – |
| CS(=O)(=O)c1ccc(Nc2cc(Nc3ccc(CC(=O)Nc4cccc(C(F)(F)F)c4)cc3)ncn2)cc1 [13s, 2-(4-(6-(4-(Methylsulfonyl)phenylamino)pyrimidin-4-ylamino)phenyl)-N-(3-(trifluoromethyl)phenyl)acetamide] | – | – | – | – | 225 to 227 | 860 ± 30 | 0.22 | – | – | – |
| O=C(Cc1ccc(Nc2cc(NCCCN3CCCC3)ncn2)cc1)Nc1ccc(OC(F)(F)F)cc1 [13t, 2-(4-(6-(3-(Pyrrolidin-1-yl)propylamino)pyrimidin-4-ylamino)phenyl)-N-(4-(trifluoromethoxy)phenyl)acetamide] | – | – | – | – | 212 to 214 | 909 ± 95.9 | 0.22 | – | – | – |
| CNc1cc(Nc2ccc(CC(=O)Nc3ccc(S(C)(=O)=O)cc3)cc2)ncn1 [13v, 2-(4-(6-(methylamino)pyrimidin-4-ylamino)phenyl)-N-(4-(methylsulfonyl)phenyl) acetamide] | > 10 | > 10 | > 10 | > 10 | 220 to 222 | 2120 ± 401 | 0.27 | > 10 | – | – |
| CNc1cc(Oc2ccc(CC(=O)Nc3ccc(C(C)(C)C)cc3)cc2)ncn1 [13x, 2-(4-(6-(Methylamino)pyrimidin-4-yloxy)phenyl)-N-(4-tert-butylphenyl)acetamide] | – | – | – | – | 208 to 210 | 5090 ± 75.5 | 0.25 | – | – | – |
| CNc1cc(Nc2ccc(CC(=O)Nc3ccc(OC(F)(F)F)cc3)cc2)ncn1 [13z, 2-(4-(6-(Methylamino)pyrimidin-4-ylamino)phenyl)-N-(4-(trifluoromethoxy)phenyl) acetamide] | – | – | – | – | 220 to 222 | 7370 ± 333 | 0.23 | – | – | – |

The remaining compounds from weak to strong by IC50 (FLT3 kinase; read-out: FLT3 IC50 (nM) ± SD), led by results:

| GI50 (Molm14^F691L) [µM] | GI50 (MV4–11 AML cells) [µM] | GI50 (Molm14 par) [µM] | GI50 (Ba/F3 FLT3-ITD) [µM] | melting point [°C] | IC50 (FLT3 kinase; read-out: FLT3 IC50 (nM) ± SD) [nM] | LE (FLT3 kinase) | GI50 (Molm14^D835Y) [µM] | fold less active than 13a on FLT3 (FLT3 kinase; enzymatic FLT3 IC50 compared with 13a) | SMILES | IC50 (FLT3 kinase; FLT3 IC50 (nM) ± SD) [nM] |
| --- | --- | --- | --- | --- | --- | --- | --- | --- | --- | --- |
| – | – | – | – | 218 to 220 | 395 ± 78 | 0.28 | – | – | CC(C)(C)c1cc(NC(=O)Cc2ccc(Nc3cc(N4CCOCC4)ncn3)cc2)no1 [13p, 2-(4-(6-Morpholinopyrimidin-4-ylamino)phenyl)-N-(5-tert-butylisoxazol-3-yl)acetamide] | – |
| – | – | – | – | 238 to 240 | 41 ± 6.8 | 0.27 | – | ~ 3 fold | Cn1nc(C(C)(C)C)cc1NC(=O)Nc1ccc(Nc2cc(Nc3ccc(S(C)(=O)=O)cc3)ncn2)cc1 [24a, 1-(4-(6-(4-(Methylsulfonyl)phenylamino)pyrimidin-4-ylamino)phenyl)-3-(3-tert-butyl-1-methyl-1H-pyrazol-5-yl)urea] | – |
| – | – | – | – | 242 to 244 | 38.2 ± 1.5 | 0.37 | – | – | CNc1cc(Nc2ccc(NC(=O)Nc3cc(C(C)(C)C)nn3C)cc2)ncn1 [24b, 1-(4-(6-(Methylamino)pyrimidin-4-ylamino)phenyl)-3-(3-tert-butyl-1-methyl-1H-pyrazol-5-yl)urea] | – |
| 1.35 | 0.0806 | 0.187 | 0.159 | 194 to 196 | 37.5 ± 13 | 0.35 | 2.23 | – | CNc1cc(Nc2ccc(CC(=O)Nc3cc(C(C)(C)C)nn3C)cc2)ncn1 [13b, 2-(4-(6-(Methylamino)pyrimidin-4-ylamino)phenyl)-N-(3-tert-butyl-1-methyl-1H-pyrazol-5-yl)acetamide] | – |
| – | – | – | – | 245 to 247 | 29 ± 1.9 | 0.28 | – | – | CC(C)(C)c1cc(NC(=O)Nc2ccc(Nc3cc(Nc4ccc(S(C)(=O)=O)cc4)ncn3)cc2)no1 [24c, 1-(4-(6-(4-(Methylsulfonyl)phenylamino)pyrimidin-4-ylamino)phenyl)-3-(5-tert-butylisoxazol-3-yl)urea] | – |
